This note sets out measurements from patent publication US20090233906A1, “IMIDAZOAZEPINONE COMPOUNDS” (priority 2006, published 2009).

The test system of this assay is human T-bet. The experiment in a line: HEKT-bet-luc assay (normalized). Format: cell-based. As to conditions: Homo sapiens, HEK293, 24 h, normalized HEKT-bet-luc IC50; engineered HEK cells, T-box responsive luciferase reporter, compound 24 hours; normalized to reference ER-819544; read-out: IC50. The method, then: HEKT-bet-luc assay: This assay measures a T-bet dependent reporter (luciferase) activity in engineered HEK cells that express a human T-bet and a T-box responsive element driving luciferase reporter. HEKT-bet cells were plated at 2×10^4/well in 96-well plate and compound was added into cell culture for 24 hours. Luciferase activity was measured by adding 50 μl of Steady-Glo reagent (Promega) and samples were read in Victor V reader (PerkinElmer). The activity of compound was determined by comparing compound treated samples to non-compound treated vehicle controls. The IC50 values were calculated utilizing a maximum value corresponding to the amount of luciferase in the absence of a test compound and a minimum value corresponding to a test compound value obtained at maximum inhibition.
Determination of Normalized HEKT-bet IC50 values: Compounds were assayed in microtiter plates. Each plate included a reference compound which was ER-819544. The un-normalized IC50 value for a particular compound was divided by the IC50 value determined for the reference compound in the same microtiter plate to provide a relative potency value. The relative potency value was then multiplied by the established potency of the reference compound to provide the normalized HEKT-bet IC50 value. […] The IC50 values provided herein were obtained using this normalization method.
For orientation: IC50 means the concentration at which inhibition is half-maximal. `CCN1C(=O)N2Cc3cc4c(cc3C(C)(C)C=C2C12CCN(Cc1cc(OC)cc(OC)c1)CC2)OCO4` [compound 819708]: the IC50 was 3600 nM. With `COc1cc(CN2CCC3(CC2)C2=CC(C)(C)c4c(cc(OC)cc4OC)CN2C(=O)N3CCO)c(F)c(OC)c1` [compound 819724] the figure was 104 nM.

As to `COc1cc2c(c(OC)c1OC)C(C)C=C1N(C2)C(=O)N(CCO)C12CCN(Cc1cc(C)cc(C)c1)CC2` (stereo not shown) [compound 819735], the IC50 came out at 140 nM. Under `COCCN1C(=O)N2Cc3cc(OC)cc(OC)c3C(C)(C)C=C2C12CCN(Cc1cc(OC)cc(OC)c1C)CC2` [compound 819749] stands 44 nM; under `COCCN1C(=O)N2Cc3cc(OC)cc(OC)c3C(C)(C)C=C2C12CCN(Cc1cc(OC)cc(OC)c1O)CC2` [compound 819750], 41 nM. With `COCCN1C(=O)N2Cc3cc(OC)cc(OC)c3C(C)(C)C=C2C12CCN(Cc1cc(OC)cc(OC)c1OC)CC2` [compound 819752] the figure was 71 nM. With `CCN1C(=O)N2Cc3cc(OC)c(OC)c(OC)c3C(C)C=C2C12CCN(Cc1cccc3cccnc13)CC2` (stereo not shown) [compound 819755], the 50% inhibitory concentration (IC50) is 53 nM. With `CCN1C(=O)N2Cc3cc(OC)cc(OC)c3C(C)C=C2C12CCN(Cc1cccc(OC)c1OC)CC2` (stereo not shown) [compound 819767] the figure was 148 nM; with `CCN1C(=O)N2Cc3cc(OC)cc(OC)c3C(C)C=C2C12CCN(Cc1ccco1)CC2` (stereo not shown) [compound 819768], 183 nM. With `CCN1C(=O)N2Cc3cc(OC)cc(OC)c3C(C)C=C2C12CCN(Cc1ccoc1)CC2` (stereo not shown) [compound 819769], the 50% inhibitory concentration (IC50) worked out at 190 nM.

Take `CCN1C(=O)N2Cc3cc(OC)cc(OC)c3C(C)C=C2C12CCN(Cc1ccc(C)o1)CC2` (stereo not shown) [compound 819770]: the IC50 was determined as 267 nM.

On to `CCN1C(=O)N2Cc3cc(OC)cc(OC)c3C(C)C=C2C12CCN(Cc1occ(C)c1C)CC2` (stereo not shown) [compound 819771], for which the IC50 stood at 205 nM.

For `CCN1C(=O)N2Cc3cc(OC)cc(OC)c3C(C)C=C2C12CCN(Cc1cccn1C)CC2` (stereo not shown) [compound 819772], the IC50 came out at 103 nM. `CCN1C(=O)N2Cc3cc(OC)cc(OC)c3C(C)(C)C=C2C12CCN(Cc1ccc3nc[nH]c3c1)CC2` [compound 819777]: the concentration for half-maximal inhibition (IC50) was 110 nM. Turning to `COc1cc2c(c(OC)c1)C(C)C=C1N(C2)C(=O)N(CC2CC2)C12CCN(Cc1cc(C)cc(C)c1)CC2` (stereo not shown) [compound 819991], the half-maximal inhibitory concentration (IC50) was determined as 120 nM. With `COc1cc2c(c(OC)c1)C(C)C=C1N(C2)C(=O)N(CC=C(C)C)C12CCN(Cc1cc(C)cc(C)c1)CC2` (stereo not shown) [compound 819995] the figure was 330 nM.
